Experimental data from patent US20200024246A1, “POGOSTONE DERIVATIVES AND METHODS OF USING THE SAME” (Hamyard Associates LLC, priority 2018, published 2020).
Entries after “also recorded” stand apart in the source; their conditions may differ.

How the values were obtained:
[1] = tested on: Dandelion (Taraxacum officinale); assay: Soil drench herbicidal test, dandelion; assay type: in vivo; conditions: 40 mL of 0.5% soil drench, FIG. 12; words
Method: Dandelion (Taraxacum officinale) seeds were obtained from the Department of Agronomy at Iowa State University. Individual seeds were sown for each pot (6″ wide×4.5″ deep) with approximately 800 mL of soil for each plan. Only plants that germinated were used for the study. Plants were treated 1-2 weeks post emergence. Plants were watered every 2-3 days as needed. Giant foxtail (Setaria faberi) seeds were obtained from the Department of Agronomy at Iowa State University. Three seeds were sown for each pot (6″ wide×4.5″ deep) with approximately 800 mL of soil for each plan. Only plants that germinated were used for the study. Plants were treated 1-2 weeks post emergence. Plants were watered every 2-3 days as needed.
Formulations of the various active ingredients were created using the disclosed pogostone derivatives and Triton-X 100 to aid in the solvation of the active ingredient. Formulations consisted of 0.5% active ingredient by weight. […] 40 mL of formulation ([…] active ingredient) was applied to each pot containing approximately 3-5 plants per pot at 2-3 weeks after emergence. Observations were performed 3 days and 2 weeks after soil drench to determine the effects of the treatments on the various types and stages of plants. […]

maize weevils = assay: Spray-cup testing, maize weevils (FIG. 3c); assay type: in vivo, maize weevil; conditions: Formula 13 2.5% w/v in water vs thymol 2.5% or 10% w/v
Method: 10 adults of various arthropod species used for this characterization were placed into 8 oz. ice cream cups with tulle placed over the top to prevent the escape of arthropods from the container. Test formulations were added to spray bottles ([…]™) and applied at the same distance and spray number to eliminate variation between manufacturer spray bottles. For all experiments, spray bottles were set to mist in order to prevent excess formulation from accumulating in the cups. […] Mortality was recorded at 1 min, 5 min, 10 min, 15 min, 30 min, 4 hours, and 8 hours for each replicate. A minimum of 3 replicates of 10 arthropods/cup/replicate were performed for each formulation. Data was modeled using a logarithmic regression to show the speed-to-kill of each formulation and highlight differences among treatment groups. Different spray amounts were used for each arthropod, depending on susceptibility, e.g.:
Maize weevils=8 sprays, 3 in […]

[2] = tested on: 3-4 instar Aedes aegypti larvae; assay: Mosquito larvicide bioassay; assay type: in vivo
Method: Mosquito larvicide bioassays were performed by introducing various concentrations of test compounds (pyrone derivatives and rotenone) into acetone at various concentrations. 200 uL of these solutions were added to individual cups containing 10, 3-4 instar Aedes aegypti larvae and 25 mL of DI water. 2 mg of Tetramin™ was provided to each cup as a food source. […] Ataxia was used as the indicator of larval mortality. At least 5 concentrations were used which caused between 10 and 90% mortality. LC50 values were calculated using a PROC PROBIT model in SAS 9.4.

[3] = tested on: adult female Aedes aegypti; assay: Topical combination of Formula 13 with synthetic insecticides (FIGS. 6-9); assay type: in vivo
Method: A low-dose concentration of Formula 13 (500 μg/mL) was applied in combination with chlorfenapyr (75 μg/mL), dibrom (10 μg/mL), thiamethoxam (100 μg/mL), and permethrin (2.5 μg/mL) to the pronotum of adult female Aedes aegypti in 0.2 μL of acetone. These concentrations were chosen as they produced little-to-no mortality at 24 hours after application. Knockdown (immobilization) was recorded at 1 hour after application and mortality was recorded at 24, 48, and 72 hours after initial application. These applications were run in parallel to a topical application of a combined mixture of 500 μg/mL Formula 13 and 75 μg/mL of chlorfenpayr to the pronotum of adult female mosquitoes. For this experiment, total of 25 mosquitoes were treated within each replicate, with a minimum of 3 replicates utilized for each treatment. Synergism was defined as the higher percentage mortality in the insecticidal combination of both Formula 13 and chlorfenapyr compared to each individual component applied by itself.

[4] = tested on: two-spotted spider mites, soybean aphids, maize weevils, German cockroaches, and European corn borers; assay: Screen of Formula 13 against other arthropod pest species; assay type: in vivo; conditions: words
[5] = tested on: adult female Aedes aegypti mosquitoes; assay: Formula 13 after pre-treatment with detoxification enzyme inhibitors (FIG. 10); assay type: in vivo
Method: Combinations of 2000 μg/mL Formula 13 and various detoxification enzyme inhibitors were applied to adult female mosquitoes in a volume of 0.2 μL to identify which detoxification pathway was most responsible for clearance of bioactive pogostone from the insect. A dose of 0.2 uL of either 1000 μg/mL of S,S,S-tributyl phosphorotrithioate (DEF) or 5000 μg/mL piperonyl butoxide (PBO) or 5000 μg/mL diethyl maleate (DEM) was applied 4 hours before a dose of 0.2 uL 2000 μg/mL of Formula 13 was applied to adult Aedes aegypti. […] The concentrations of inhibitors were chosen due to their inability to cause toxicity on their own at this application rate. The concentration of Formula 13 was chosen as the approximate LD25 of this compound against adult female Aedes aegypti mosquitoes. Combinations that caused statistically higher levels of mortality than pyrone 7 applied alone were considered informative. The goal of this exploration was to determine which processes might be most valuable in the detoxification of these derivatives.

adult female mosquitoes = assay: whole plant or invertebrate; conditions: topical
Method: The first group of DHAA-based derivatives that were tested included Formula A2, Formula B3, Formula C3, and Formula D3. A solution of 0.5% or 1.5% of each of these compounds was applied to the mosquitoes, as described above. […] Acetone was used as a control.

adult house flies = assay: Topical application of pogostone derivatives with PBO or plant essential oil on house flies; assay type: in vivo, house fly; conditions: house flies
Method: Combinations of select pogostone derivatives with select concentrations of PBO or plant essential oils was performed. […] Synergists were applied as a subsequent application directly after the application of pogostone derivatives. Concentrations of synergists (plant oils or PBO) were chosen that produced no mortality at 24 hours when applied alone.
To assess the ability of PBO to increase the toxicity of a wide variety of pogostone derivatives, PBO and the pogostone derivatives were applied in combination to the pronotum of house flies.
Finally, the potential of plant essential oils to synergize the effect of Formula 30 was assessed.

CC(C)CCC(=O)c1c(O)c2ccccc2oc1=O [Formula 13]
phytotoxicity in dandelion [1]: little phytotoxicity | efficacy (mortality) compared with thymol (maize weevils): outperformed thymol at all time points; also recorded: performed better than thymol applied at an equal concentration and as well as thymol applied in a 10% concentration | LC50 ([2]; Aedes aegypti, larval mortality at 24 hours, in 25 mL DI water, read-out: LC50): 1.34 µg/mL | larvicidal properties compared with natural pogostone or rotenone ([2]; words): possessed better larvicidal properties than natural pogostone; also recorded: possessed better larvicidal properties than rotenone; also recorded: performed as well as the rotenone | mortality at 500 µg/mL ([3]; Aedes aegypti, 24 h, read-out: 24-hr percentage mortality): 11.2% | percentage mortality at 24 hour ([3]; chlorfenapyr 75 ug/mL, Formula 13 500 ug/mL, alone or combined, words): very low mortality | toxicity compared with thymol [4]: more toxic than a commonly used natural insecticide, thymol | toxicity of Formula 13 after DEF (inhibition of esterases) ([5]; 1000 μg/mL DEF 4 hours before 2000 μg/mL Formula 13, 0.2 uL each): significantly increased the toxicity of Formula 13 | toxicity of Formula 13 after DEM (decreasing glutathione S-transferase activity) ([5]; 5000 μg/mL DEM 4 hours before 2000 μg/mL Formula 13, 0.2 uL each): second-most important enzyme system | toxicity of Formula 13 after PBO (inhibition of monooxygenases) ([5]; 5000 μg/mL PBO 4 hours before 2000 μg/mL Formula 13, 0.2 uL each): most significant for increasing the toxicity of Formula 13 | approximate LD25 (concentration applied) ([5]; 0.2 uL applied topically to adult female Aedes aegypti): ~2000 µg/mL | 1-hour Knockdown EC50 (μg/g mosquito) (adult female mosquitoes; mosquito, 1 hour): 182 μg/g mosquito | LD50 (adult female mosquitoes; 24 h, read-out: 24-hour Mortality LD50 (μg/g mosquito)): 119 mg/kg | SR (synergistic ratio) (adult house flies; LD50 alone versus in combination with PBO): 17.8 | LD50 (adult house flies; topical, derivative alone or in combination with PBO): 5950 µg/g
